Results published in patent US8785457B2 (Cellzome Limited, priority 2009, dated 2014).
Read-outs that look alike come from different tables or passages of the source.

Columns and labels:
PI3Kalpha (PI3Ka) = target: T1, PI3Kalpha (PI3Ka) (Homo sapiens, UniProt P42336); experiment: kinobeads assay, PI3Kalpha; type: binding; settings: for Inhibition values (IC50) PI3Ka: kinobeads assay, Table 6
T1 construct: endogenous in cells; host or cells: cell lysate
Protocol: (§1) The kinobeads assay was performed as a competitive binding assay in which test compounds were added directly into a cell lysate. Test compounds (at various concentrations) and the affinity matrix (beads with immobilized phenylmorpholin-chromen ligand) were added to cell lysate aliquots and allowed to bind to the proteins contained in the lysate sample. After the incubation time the beads with captured proteins were separated from the lysate. Bound proteins were then eluted and the presence of kinases was detected and quantified using a multiplexed immunodetection format. Dose response curves for individual kinases were generated and IC50 values calculated.
(§2) The effect of the compounds on the kinases PI3Kalpha (PI3Ka), PI3 Kbeta (PI3 Kb) and PI3 Kgamma (PI3 Kg) were tested in the kinobeads assay as described (WO-A 2009/098021).

[1] = target: T2, DNA-dependent protein kinase (DNA-PK) (Homo sapiens, UniProt P78527); experiment: kinobeads assay, DNA-PK; type: binding
T2 construct: endogenous in cells; host or cells: Jurkat, clone E6-1 (ATCC TIB-152) cell lysate
Protocol: (§3) The compounds of the present invention as described were tested in the mTOR kinobeads assay as described below. Briefly, test compounds (at various concentrations) and the affinity matrix with the immobilized phenylmorpholin-chromen ligand (8-(4-aminomethyl-phenyl)-2-morpholin-4-yl-chromen-4-one) were added to cell lysate aliquots and allowed to bind to the proteins in the lysate sample. After the incubation time the beads with captured proteins were separated from the lysate. Bound proteins were then eluted and the presence of mTOR, PI3K delta (PI3 Kd) and DNA-dependent protein kinase (DNA-PK) was detected and quantified using a specific antibody in a dot blot procedure and the Odyssey infrared detection system. Kinobeads assays for PI3K (WO-A 2008/015013) and for kinase selectivity profiling (WO 2006/134056) have been previously described.
as §1
(§4) The affinity matrix (beads with immobilized phenylmorpholin-chromen ligand) was washed two times with 15 ml of 1×DP buffer containing 0.2% NP40 (IGEPAL® CA-630, Sigma, #13021) and then resupended in 5.5 ml of 1×DP buffer containing 0.2% NP40 (10% beads slurry).
(§5) 5×DP buffer: 250 mM Tris-HCl pH 7.4, 25% Glycerol, 7.5 mM MgCl2, 750 mM NaCl, 5 mM Na3VO4, filter the 5×-lysis buffer through 0.22 μm filter and store in aliquots at −80° C. The 5×DP buffer is diluted to 1×DP buffer containing 1 mM DTT and 25 mM NaF.
(§6) Stock solutions of test compounds were prepared in DMSO. In a 96 well plate 30 μl solution of diluted test compounds at 5 mM in DMSO were prepared. Starting with this solution a 1:3 dilution series (9 steps) was prepared. For control experiments (no test compound) a buffer containing 2% DMSO was used. Compound CZC00018052 served as a positive control (PI-103; Calbiochem catalogue number 528100).
(§7) Jurkat cells (ATCC catalogue number TIB-152 Jurkat, clone E6-1) were grown in 1 liter Spinner flasks (Integra Biosciences, #182101) in suspension in RPMI 1640 medium (Invitrogen, #21875-034) supplemented with 10% Fetal Bovine Serum (Invitrogen) at a density between 0.15×10^6 and 1.2×10^6 cells/ml. Cells were harvested by centrifugation, washed once with 1×PBS buffer (Invitrogen, #14190-094) and cell pellets were frozen in liquid nitrogen and subsequently stored at −80° C.
(§8) Jurkat cells were homogenized in a Potter S homogenizer in lysis buffer: 50 mM Tris-HCl, 0.8% NP40, 5% glycerol, 150 mM NaCl, 1.5 mM MgCl2, 25 mM NaF, 1 mM sodium vanadate, 1 mM DTT, pH 7.5. One complete EDTA-free tablet (protease inhibitor cocktail, Roche Diagnostics, 1873580) per 25 ml buffer was added. The material was dounced 10 times using a mechanized POTTER S, transferred to 50 ml falcon tubes, incubated for 30 minutes on ice and spun down for 10 min at 20,000 g at 4° C. (10,000 rpm in Sorvall SLA600, precooled). The supernatant was transferred to an ultracentrifuge (UZ)-polycarbonate tube (Beckmann, 355654) and spun for 1 hour at 100.000 g at 4° C. (33.500 rpm in Ti50.2, precooled). The supernatant was transferred again to a fresh 50 ml falcon tube, the protein concentration was determined by a Bradford assay (BioRad) and samples containing 50 mg of protein per aliquot were prepared. The samples were immediately used for experiments or frozen in liquid nitrogen and stored frozen at −80° C. […]

PI3K delta (PI3 Kd) = target: T3, PI3K delta (PI3 Kd) (Homo sapiens, UniProt O00329); experiment: kinobeads assay, PI3K delta; type: binding
T3 construct: endogenous in cells; host or cells: Jurkat, clone E6-1 (ATCC TIB-152) cell lysate
Protocol: as §3, §1, §4, §5, §6, §7, §8

PI3 Kbeta (PI3 Kb) = target: T4, PI3 Kbeta (PI3 Kb) (Homo sapiens, UniProt P42338); experiment: kinobeads assay, PI3Kbeta; type: binding
T4 construct: endogenous in cells; host or cells: cell lysate
Protocol: as §1, §2

mTOR = target: T5, mTOR (Homo sapiens, UniProt P42345); experiment: mTOR kinobeads assay (competitive binding in Jurkat cell lysate, immunodetection)
T5 construct: endogenous in cells; host or cells: Jurkat, clone E6-1 (ATCC TIB-152) cell lysate
Protocol: The compounds of the present invention as described were tested in the mTOR kinobeads assay as described below. […] After the incubation time the beads with captured proteins were separated from the lysate. Bound proteins were then eluted and the presence of mTOR, PI3K delta (PI3 Kd) and DNA-dependent protein kinase (DNA-PK) was detected and quantified using a specific antibody in a dot blot procedure and the Odyssey infrared detection system.
as §1, §5
as §6, with “used.” for “used. Compound CZC00018052 served as a positive control (PI-103; Calbiochem catalogue number 528100).”
Jurkat cells were homogenized in a Potter S homogenizer in lysis buffer: 50 mM Tris-HCl, 0.8% NP40, 5% glycerol, 150 mM NaCl, 1.5 mM MgCl2, 25 mM NaF, 1 mM sodium vanadate, 1 mM DTT, pH 7.5. […] The material was dounced 10 times using a mechanized POTTER S, transferred to 50 ml falcon tubes, incubated for 30 minutes on ice and spun down for 10 min at 20,000 g at 4° C. (10,000 rpm in Sorvall SLA600, precooled). […] (33.500 rpm in Ti50.2, precooled). The supernatant was transferred again to a fresh 50 ml falcon tube, the protein concentration was determined by a Bradford assay (BioRad) and samples containing 50 mg of protein per aliquot were prepared. The samples were immediately used for experiments or frozen in liquid nitrogen and stored frozen at −80° C.
Jurkat cell lysate (approximately 50 mg protein per plate) was thawed in a water bath at room temperature and then kept on ice. […] The diluted cell lysate was stored on ice.
Plates were sealed and incubated for two hours in a cold room on a Thermoxer with shaking (750 rpm). Afterwards the plate was washed twice with 230 μl washing buffer (1×DP 0.4% NP40). […] The eluate was frozen quickly at −80° C. and stored at −20° C.
The kinases in the eluates were detected and quantified by spotting on Nitrocellulose membranes and using a first antibody directed against the kinase of interest and a fluorescently labeled secondary antibody (anti-mouse or anti-rabbit IRDye™ antibodies from Rockland).
Afterwards the membrane was washed three times for 10 minutes with PBS buffer containing 0.1% Tween 20 at room temperature. […] Afterwards the membrane was washed three times for 10 minutes each with 1×PBS buffer containing 0.1% Tween 20 at room temperature. Then the membrane was rinsed once with PBS buffer to remove residual Tween 20. The membrane was kept in PBS buffer at 4° C. and then scanned with the Odyssey instrument. Fluorescence signals were recorded and analysed according to the instructions of the manufacturer.

PI3 Kgamma (PI3 Kg) = target: T6, PI3 Kgamma (PI3 Kg) (Homo sapiens, UniProt P48736); experiment: kinobeads assay, PI3Kgamma; type: binding
T6 construct: endogenous in cells; host or cells: cell lysate
Protocol: as §1, §2

[2] = Further Kinobeads Data, read-out: DNAPK
[3] = Further Kinobeads Data, read-out: PI3Kd
[4] = Further Kinobeads Data, read-out: PI3Kb
[5] = Further Kinobeads Data, read-out: mTor
[6] = Further Kinobeads Data, read-out: PI3Kg
[7] = kinobeads assay, Table 6, read-out: Inhibition values (IC50) DNAPK
[8] = kinobeads assay, Table 6, read-out: Inhibition values (IC50) PI3Kd
[9] = kinobeads assay, Table 6, read-out: Inhibition values (IC50) PI3Kb
[10] = kinobeads assay, Table 6, read-out: Inhibition values (IC50) mTOR
[11] = kinobeads assay, Table 6, read-out: Inhibition values (IC50) PI3Kg

T3 sequence (O00329 whole entry): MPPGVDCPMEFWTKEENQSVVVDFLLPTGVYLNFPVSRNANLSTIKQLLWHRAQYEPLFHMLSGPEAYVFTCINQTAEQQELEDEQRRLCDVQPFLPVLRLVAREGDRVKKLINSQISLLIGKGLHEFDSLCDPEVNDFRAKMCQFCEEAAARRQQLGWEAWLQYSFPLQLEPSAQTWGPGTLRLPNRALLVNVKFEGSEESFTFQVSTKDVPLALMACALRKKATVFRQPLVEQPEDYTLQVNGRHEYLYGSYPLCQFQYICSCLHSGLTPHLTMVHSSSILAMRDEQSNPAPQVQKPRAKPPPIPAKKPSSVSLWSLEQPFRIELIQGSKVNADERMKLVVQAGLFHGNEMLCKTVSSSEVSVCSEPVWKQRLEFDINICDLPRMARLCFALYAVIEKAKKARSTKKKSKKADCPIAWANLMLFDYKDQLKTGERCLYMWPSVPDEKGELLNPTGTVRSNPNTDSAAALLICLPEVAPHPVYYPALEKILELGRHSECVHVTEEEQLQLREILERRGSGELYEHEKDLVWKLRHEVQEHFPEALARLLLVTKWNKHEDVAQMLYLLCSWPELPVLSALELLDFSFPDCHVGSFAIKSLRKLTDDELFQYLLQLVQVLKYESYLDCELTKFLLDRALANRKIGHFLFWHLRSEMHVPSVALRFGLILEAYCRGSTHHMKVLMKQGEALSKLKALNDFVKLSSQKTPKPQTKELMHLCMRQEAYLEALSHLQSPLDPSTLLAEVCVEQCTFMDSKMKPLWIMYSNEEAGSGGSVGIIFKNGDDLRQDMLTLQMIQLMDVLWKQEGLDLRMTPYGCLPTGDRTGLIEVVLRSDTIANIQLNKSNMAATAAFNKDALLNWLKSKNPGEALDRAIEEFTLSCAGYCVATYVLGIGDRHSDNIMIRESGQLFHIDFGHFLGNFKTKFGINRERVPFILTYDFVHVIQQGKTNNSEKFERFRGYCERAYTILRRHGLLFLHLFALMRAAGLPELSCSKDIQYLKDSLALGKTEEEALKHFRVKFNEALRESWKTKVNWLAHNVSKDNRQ
T3 sequence (P27986 whole entry partner): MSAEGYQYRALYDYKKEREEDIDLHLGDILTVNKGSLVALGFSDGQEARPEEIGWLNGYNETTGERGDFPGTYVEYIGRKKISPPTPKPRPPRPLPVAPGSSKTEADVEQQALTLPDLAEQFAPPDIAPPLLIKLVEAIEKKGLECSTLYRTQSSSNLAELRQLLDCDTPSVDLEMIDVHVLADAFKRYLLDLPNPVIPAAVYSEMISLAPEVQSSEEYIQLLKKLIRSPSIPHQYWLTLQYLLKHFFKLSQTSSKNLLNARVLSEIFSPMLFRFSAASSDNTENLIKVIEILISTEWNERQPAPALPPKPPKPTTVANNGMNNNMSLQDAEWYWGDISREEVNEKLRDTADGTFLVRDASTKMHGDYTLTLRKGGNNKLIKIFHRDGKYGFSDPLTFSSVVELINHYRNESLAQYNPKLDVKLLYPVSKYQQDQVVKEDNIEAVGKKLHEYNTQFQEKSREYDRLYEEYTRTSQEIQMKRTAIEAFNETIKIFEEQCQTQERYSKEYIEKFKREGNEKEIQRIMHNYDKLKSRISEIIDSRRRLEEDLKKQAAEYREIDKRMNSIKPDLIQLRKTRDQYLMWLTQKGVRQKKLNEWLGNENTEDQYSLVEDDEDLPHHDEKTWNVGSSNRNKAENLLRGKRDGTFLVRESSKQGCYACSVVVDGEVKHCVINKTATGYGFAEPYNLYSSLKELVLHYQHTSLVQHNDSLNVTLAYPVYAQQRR
T6 sequence (P48736 whole entry): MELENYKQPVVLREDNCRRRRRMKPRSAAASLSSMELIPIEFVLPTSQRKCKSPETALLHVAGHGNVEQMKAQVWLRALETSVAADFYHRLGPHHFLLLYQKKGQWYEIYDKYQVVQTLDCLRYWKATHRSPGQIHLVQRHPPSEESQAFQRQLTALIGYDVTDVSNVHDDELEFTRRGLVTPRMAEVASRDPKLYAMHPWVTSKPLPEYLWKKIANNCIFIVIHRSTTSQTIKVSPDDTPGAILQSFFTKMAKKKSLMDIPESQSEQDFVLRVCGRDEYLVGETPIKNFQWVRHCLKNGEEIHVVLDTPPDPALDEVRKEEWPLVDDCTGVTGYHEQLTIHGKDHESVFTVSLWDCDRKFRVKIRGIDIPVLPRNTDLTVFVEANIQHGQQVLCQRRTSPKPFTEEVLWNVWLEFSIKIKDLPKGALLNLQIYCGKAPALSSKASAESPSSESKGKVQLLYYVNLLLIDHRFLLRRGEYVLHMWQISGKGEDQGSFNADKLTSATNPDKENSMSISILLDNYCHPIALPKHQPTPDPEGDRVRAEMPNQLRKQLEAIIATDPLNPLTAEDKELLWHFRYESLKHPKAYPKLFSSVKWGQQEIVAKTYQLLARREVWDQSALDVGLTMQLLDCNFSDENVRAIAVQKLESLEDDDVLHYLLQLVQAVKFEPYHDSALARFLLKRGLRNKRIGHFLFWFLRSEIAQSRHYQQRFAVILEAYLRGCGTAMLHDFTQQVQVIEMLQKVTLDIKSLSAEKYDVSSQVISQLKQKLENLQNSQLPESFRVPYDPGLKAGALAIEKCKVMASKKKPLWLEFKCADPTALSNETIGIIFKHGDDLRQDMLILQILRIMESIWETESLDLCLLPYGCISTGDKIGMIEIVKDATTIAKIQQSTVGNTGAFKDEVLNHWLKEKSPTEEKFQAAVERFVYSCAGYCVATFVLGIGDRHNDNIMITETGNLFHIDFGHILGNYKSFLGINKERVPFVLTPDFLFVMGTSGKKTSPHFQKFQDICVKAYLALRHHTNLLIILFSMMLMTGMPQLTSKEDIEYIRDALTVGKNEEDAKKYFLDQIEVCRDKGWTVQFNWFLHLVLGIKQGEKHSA
T1 sequence (P42336 whole entry): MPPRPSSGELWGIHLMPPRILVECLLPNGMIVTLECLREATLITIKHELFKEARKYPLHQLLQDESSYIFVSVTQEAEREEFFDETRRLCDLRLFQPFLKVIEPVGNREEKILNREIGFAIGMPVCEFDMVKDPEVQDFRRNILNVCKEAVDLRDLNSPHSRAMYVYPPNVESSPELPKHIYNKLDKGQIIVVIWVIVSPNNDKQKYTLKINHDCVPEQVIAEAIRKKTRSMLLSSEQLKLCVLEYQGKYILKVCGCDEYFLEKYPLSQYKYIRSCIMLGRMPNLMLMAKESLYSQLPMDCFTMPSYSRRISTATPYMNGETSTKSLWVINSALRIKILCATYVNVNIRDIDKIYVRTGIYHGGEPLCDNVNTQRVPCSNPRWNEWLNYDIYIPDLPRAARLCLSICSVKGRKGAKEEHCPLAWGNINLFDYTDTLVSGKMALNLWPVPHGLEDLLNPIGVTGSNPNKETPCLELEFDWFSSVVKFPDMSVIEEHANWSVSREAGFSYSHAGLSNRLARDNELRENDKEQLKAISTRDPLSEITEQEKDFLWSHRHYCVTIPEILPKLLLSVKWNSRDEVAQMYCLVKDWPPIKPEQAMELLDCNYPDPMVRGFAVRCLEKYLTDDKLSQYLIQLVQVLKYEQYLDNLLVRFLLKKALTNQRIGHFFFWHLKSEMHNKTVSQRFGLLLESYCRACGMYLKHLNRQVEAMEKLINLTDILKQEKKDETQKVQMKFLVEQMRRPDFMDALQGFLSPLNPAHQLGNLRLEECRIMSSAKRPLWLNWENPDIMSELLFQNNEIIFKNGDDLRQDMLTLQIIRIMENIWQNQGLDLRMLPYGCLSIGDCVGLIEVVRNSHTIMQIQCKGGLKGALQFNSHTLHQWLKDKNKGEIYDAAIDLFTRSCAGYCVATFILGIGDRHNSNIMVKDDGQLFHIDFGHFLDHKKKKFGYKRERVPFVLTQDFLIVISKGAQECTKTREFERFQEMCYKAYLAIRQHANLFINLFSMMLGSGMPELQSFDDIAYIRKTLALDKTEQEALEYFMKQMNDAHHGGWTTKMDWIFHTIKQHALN
T1 sequence (P27986 whole entry partner): as the sequence (P27986 whole entry partner) above
T4 sequence (P42338 whole entry): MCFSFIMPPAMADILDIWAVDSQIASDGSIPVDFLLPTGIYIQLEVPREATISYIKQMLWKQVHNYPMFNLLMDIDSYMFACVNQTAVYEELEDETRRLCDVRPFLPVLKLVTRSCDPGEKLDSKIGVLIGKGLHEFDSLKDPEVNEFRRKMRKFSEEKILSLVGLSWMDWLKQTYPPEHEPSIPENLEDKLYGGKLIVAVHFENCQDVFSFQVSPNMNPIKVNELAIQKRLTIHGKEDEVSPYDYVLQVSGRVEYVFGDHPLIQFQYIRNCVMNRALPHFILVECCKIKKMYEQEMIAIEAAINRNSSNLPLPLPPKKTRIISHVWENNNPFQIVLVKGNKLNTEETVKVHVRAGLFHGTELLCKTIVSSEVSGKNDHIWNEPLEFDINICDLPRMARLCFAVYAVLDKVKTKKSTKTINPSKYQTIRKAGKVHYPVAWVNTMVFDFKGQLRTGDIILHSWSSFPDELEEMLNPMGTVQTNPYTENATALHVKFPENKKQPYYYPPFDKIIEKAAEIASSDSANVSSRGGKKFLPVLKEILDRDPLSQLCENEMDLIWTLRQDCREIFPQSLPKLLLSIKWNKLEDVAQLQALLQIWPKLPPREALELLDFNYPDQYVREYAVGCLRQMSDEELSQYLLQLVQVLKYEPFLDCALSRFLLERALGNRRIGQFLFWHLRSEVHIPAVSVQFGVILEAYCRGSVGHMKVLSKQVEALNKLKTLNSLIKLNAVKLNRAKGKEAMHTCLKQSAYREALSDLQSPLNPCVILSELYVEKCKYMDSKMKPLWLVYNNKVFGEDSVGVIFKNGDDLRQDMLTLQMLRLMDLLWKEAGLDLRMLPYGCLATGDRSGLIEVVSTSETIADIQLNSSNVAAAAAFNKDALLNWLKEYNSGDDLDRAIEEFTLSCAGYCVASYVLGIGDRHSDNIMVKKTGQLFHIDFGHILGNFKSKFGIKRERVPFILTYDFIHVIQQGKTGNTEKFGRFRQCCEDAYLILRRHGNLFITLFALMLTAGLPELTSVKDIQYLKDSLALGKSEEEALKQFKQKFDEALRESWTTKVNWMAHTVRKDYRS
T4 sequence (P27986 whole entry partner): as the sequence (P27986 whole entry partner) above

Row | SMILES | PI3Ka (PI3Kalpha (PI3Ka); Further Kinobeads Data) | IC50 [1, 2] [µM] | IC50 (PI3K delta (PI3 Kd); [3]) [µM] | IC50 (PI3 Kbeta (PI3 Kb); [4]) [µM] | IC50 (mTOR; [5]) [µM] | IC50 (PI3 Kgamma (PI3 Kg); [6]) [µM] | Inhibition values (IC50) PI3Ka (PI3Kalpha (PI3Ka)) | IC50 [1, 7] [µM] | IC50 (PI3K delta (PI3 Kd); [8]) [µM] | IC50 (PI3 Kbeta (PI3 Kb); [9]) [µM] | IC50 (mTOR; [10]) [µM] | IC50 (PI3 Kgamma (PI3 Kg); [11]) [µM] | IC50 (PI3Kalpha (PI3Ka); Further Kinobeads Data, read-out: PI3Ka) [µM]
1 | C[C@H]1COCCN1c1nc(-c2ccc(NC(=O)NC3CC3)cc2F)nc2c1CN(C(=O)OC(C)(C)C)C2 [Example 144, (S)-tert-Butyl 2-(4-(3-cyclopropylureido)-2-fluorophenyl)-4-(3-methylmorpholino)-5H-pyrrolo[3,4-d]pyrimidine-6(7H)-carboxylate] | D (D >10 μM) | > 10 | > 10 | > 10 | 0.1 to 1 | > 10 | – | – | – | – | – | – | –
2 | CCOC(=O)N1Cc2nc(-c3ccc(NC(=O)NCCN)cc3)nc(N3CCOC[C@@H]3C)c2C1 [Example 112, (S)-ethyl 2-(4-(3-(2-aminoethyl)ureido)phenyl)-4-(3-methylmorpholino)-5H-pyrrolo[3,4-d]pyrimidine-6(7H)-carboxylate] | – | – | – | – | – | – | B (B >0.1 μM < 1 μM) | > 10 | 0.1 to 1 | 1 to 10 | < 0.1 | 1 to 10 | –
3 | CCOC(=O)N1Cc2nc(-c3ccc(NC(=O)Nc4cccc(O)c4)cc3)nc(N3CCOC[C@@H]3C)c2C1 [Example 111, (S)-ethyl 2-(4-(3-(3-hydroxyphenyl)ureido)phenyl)-4-(3-methylmorpholino)-5H-pyrrolo[3,4-d]pyrimidine-6(7H)-carboxylate] | – | – | – | – | – | – | D (D >10 μM) | > 10 | > 10 | > 10 | 0.1 to 1 | > 10 | –
4 | CCNC(=O)Nc1ccc(-c2nc3c(c(N4CCOC[C@@H]4C)n2)CNC3)c(F)c1.Cl [Example 158, (S)-1-ethyl-3-(3-fluoro-4-(4-(3-methylmorpholino)-6,7-dihydro-5H-pyrrolo[3,4-d]pyrimidin-2-yl)phenyl)urea hydrochloride] | D (D >10 μM) | > 10 | > 10 | > 10 | < 0.1 | > 10 | – | – | – | – | – | – | –
5 | C[C@@H]1COCCN1c1nc(-c2ccc(NC(=O)NC3CC3)cc2F)nc2c1CN(C(=O)OC(C)(C)C)C2 [Example 182, (R)-tert-butyl 2-(4-(3-cyclopropylureido)-2-fluorophenyl)-4-(3-methylmorpholino)-5H-pyrrolo[3,4-d]pyrimidine-6(7H)-carboxylate] | – | 1 to 10 | 1 to 10 | > 10 | < 0.1 | > 10 | – | – | – | – | – | – | 1 to 10
